*1 amine or outer side, *2 acyl side, *3 side chain or, on linkers, in order; H or OH if unused. Where a SMILES comes first, the peptide text is derived from it. Where no end group is shown, it is not given here. [ ]: non-standard residue; d: D form. The star is where a group is joined. Pro(13C,15N) = carbon and nitrogen isotope labeled proline, O=[13C]([13C@@H]1[13CH2][13CH2][13CH2][15N]1[*:1])[*:2]; pS = N[C@@H](COP(=O)(O)O)C(=O)O; Cbz = O=C(OCc1ccccc1)*
Assays:
[1] = system: K14cre; p53^f/f; Brca1^f/f tumors; test: Survival and tumor growth, Brca1-deficient immunocompetent TNBC mouse model; format: in vivo; conditions: mice bearing K14cre, n=6 per group
Source text: (§1) All animal experiments were approved by the IACUC of the Beth Israel Deaconess Medical Center. Maximum permitted the longest dimension of tumors was 20 mm. Pieces from breast tumors generated in K14cre; p53^f/f; Brca1^f/f or K14cre; p53^wt/f; Brca1^wt/f female mice were transplanted into the mammary pad of 6-week-old FVB female mice. For survival studies, treatments were started once the tumors reached 3-5 mm in diameter and continued until mice were symptomatic or tumors reached 20 mm in any direction, at which point mice were euthanized. For time point analysis, mice were sacrificed two weeks post-treatment initiation. Control and anti-PD-L1 antibody (clone 29E.2A3) treatments were conducted by intraperitoneal injection with a dosage of 200 μg per mouse every three days. sulfopin treatment was given by intraperitoneal injection with a dosage of 60 mg/kg (7 days/week), abemaciclib treatment was given by oral gavage with a dosage of 100 mg/kg (7 days/week), or drug combinations in which each compound was administered at the same dose and scheduled as a single agent. Tumor sizes were measured every three days by caliper after implantation and tumor volume was calculated by the modified ellipsoidal formula: tumor volume=½length×width^2. The investigators were not blinded to allocation during experiments and outcome assessment.

[2] = system: K14cre; p53^wt/f; Brca1^wt/f tumors; test: Survival and tumor growth, Brca1-proficient immunocompetent TNBC mouse model; format: in vivo; conditions: mice bearing K14cre, n=10 per group
Source text: as §1

[3] = system: K14cre; p53^wt/f, Brca1^wt/f BT3 tumors; test: Survival and tumor growth, FVB mice bearing BT3 tumors; format: in vivo; conditions: n=10 mice per group
Source text: as §1

[4] = system: K14cre; Brca1^+/−; p53^−/−-TNBC; test: Survival until mandatory euthanasia, syngeneic FVB/N TNBC model with or without anti-PD-L1; format: in vivo; conditions: syngeneic FVB/N mice, time to mandatory euthanasia (tumor size 2 cm)
Source text: All animal experiments were approved by the IACUC of the Beth Israel Deaconess Medical Center. Maximum permitted the longest dimension of tumors was 20 mm. Pieces from breast tumors generated in K14cre; p53^f/f; Brca1^f/f or K14cre; p53^wt/f; Brca1^wt/f female mice were transplanted into the mammary pad of 6-week-old FVB female mice. For survival studies, treatments were started once the tumors reached 3-5 mm in diameter and continued until mice were symptomatic or tumors reached 20 mm in any direction, at which point mice were euthanized. For time point analysis, mice were sacrificed two weeks post-treatment initiation. […] Tumor sizes were measured every three days by caliper after implantation and tumor volume was calculated by the modified ellipsoidal formula: tumor volume=½length×width^2. […]
A total of 86 FVB/N mice were grafted syngeneically with the K14cre; Brca1^+/−; p53″/tumors. […] Time to mandatory euthanasia (tumor size 2 cm) was recorded. […] Statistical significance was calculated using a two-sided log-rank test.

[5] = system: TNBC patient-derived xenograft (TM00096); test: In vivo therapy for TNBC patient-derived xenografts (PDOX); parameters: species or system human tumor in BALB/c nude mice; conditions: Rb-proficient TNBC PDOX, nude mice
Method: All animal experiments were approved by the IACUC of the Beth Israel Deaconess Medical Center. Triple-negative BC patient-derived xenograft (TM00096) was purchased from Jackson Laboratories. Pieces from PDOX tumors were subcutaneously implanted into flank of 6-week-old BALB/c female nude mice. Tumor sizes were measured every three days by caliper after implantation and tumor volume was calculated by the modified ellipsoidal formula: tumor volume=½length×width^2. Treatments were started once the tumors reached 5 mm in diameter and continued until tumors reached 15 mm in any direction. […] Sulfopin treatment was given by intraperitoneal injection with a dosage of 40 mg/kg (dissolved solution: 5% DMSO in D5W, 7 days/week), palbociclib treatment was given by oral gavage with a dosage of 100 mg/kg (dissolved solution: saline, 5 days/week), abemaciclib treatment was given by oral gavage with a dosage of 100 mg/kg (dissolved solution: 0.5% CMC-Na, 5 days/week), or drug combinations in which each compound was administered at the same dose and scheduled as a single agent. […]
PDOX tumor tissue sections were boiled in 10 mM sodium citrate (pH 6.0), for antigen retrieval after deparaffinization. […] Slides were scanned at least three different representative areas at 20× magnification using BZ-X800 fluorescence microscope (KEYENCE).

MCF-7 cells = test: Time-lapse single-cell tracking with APC-degron reporter; format: cell-based, human; conditions: single living cells tracked, asynchronous MCF-7
Method: MCF-7 cells were stably expressed with mCherry-Geminin (1-110) and a histone H2B-Turquoise. Cells were then plated 24 hours before starting the microscope acquisition. Pin1 inhibitors or CDK4/6 inhibitors were added in the medium and imaged using a Nikon Eclipse TE-2000 inverted microscope with a 10× Plan Apo objective and a Hammamatsu Orca ER camera, equipped with environmental chamber controlling temperature, atmosphere (5% CO2) and humidity. Images were acquired every 30 min using the MetaMorph Software. For each condition filmed, 4 different fields were selected.
p53Cinema single cell analysis package was used for semiautomatic tracking of individual cells in live cell imaging datasets as described previously (Reyes et al., Mol Cell 2018; 71:581-91 e5). Tracking data were then used to quantify intensity of fluorescent reporters from background subtracted images by averaging 10 pixels within the cell nucleus. Cells were tracked using only information about a constitutively expressed nuclear marker, such as H2B-Turquoise, and were thus blind to the dynamics of molecular players of interest, such as mCherry-Geminin. Only cells that remained within the field of view throughout the entire duration of the experiment were considered for downstream analyses. […] S/G2 durations were calculated by the time that cells spent in S/G2 phase after drugs were added.

[6] = system: Cdh1 binding to Pin1 WW and PPIase domains; test: GST-Pin1 pull-down of HA-Cdh1 after sulfopin treatment; format: cell-based, human; conditions: MCF-7 cells expressing HA-Cdh1, sulfopin 3 days, 10 μM MG132 last 12 hrs
Method: GST pull-down was performed as described previously (Lee et al., Mol Cell 2011; 42:147-59). Briefly, cells were stably expressing indicated proteins and lysed in pull-down buffer (20 mM Tris pH 8.0, 150 mM NaCl, 1 mM EDTA pH 8.0, 0.5% Nonidet-P40). The cell extracts were pre-cleared by glutathione agarose beads and incubated with 1 μM GST or GST fusion proteins overnight at 4° C. Protein complexes were recovered on glutathione agarose beads for 2 hours at 4° C., washed four to six times with pull-down buffer and eluted by boiling in SDS-containing sample buffer. Bound proteins were resolved by SDS-PAGE.
To further define the molecular mechanism of Cdh1-mediated Pin1 degradation, the interaction of Pin1 and Cdh1 was examined using GST pull-down assays using GST-Pin1 point mutations. IB analysis of GST pull-down precipitates derived from 293T cells transfected with HA-Cdh1 and GST-Pin1 mutants as indicated for 36 hrs. The graphs were one representative experiment out of three independent experiments. […] FIG. 1K and FIG. 1L show the shift of Cdh1 binding from the WW− to the PPIase domain of Pin1 upon inhibition of PPIase activity. […] Bottom graphs quantification of IB analysis for bound HA-Cdh1. […]

Pin1 [7] = biological target: T1, Pin1 (Homo sapiens, UniProt Q13526); test: NMR titration of Cdh1 phosphopeptide with Pin1; format: binding; conditions: NMR chemical shift perturbation, pH 6.6, 25° C.
T1 sequence (Q13526 whole entry, the tested form may be a part): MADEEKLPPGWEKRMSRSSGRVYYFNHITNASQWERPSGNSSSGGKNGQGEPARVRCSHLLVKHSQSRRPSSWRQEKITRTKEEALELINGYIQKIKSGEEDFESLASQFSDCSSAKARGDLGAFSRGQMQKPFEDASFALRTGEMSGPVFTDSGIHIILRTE
Method: All NMR experiments were acquired on Bruker NEO 600 MHz spectrometer equipped with a TCI cryoprobe at 25° C. 0.1 mM ^13C, ^15N-enriched Pin1 sample dissolved in pH 6.6 buffer made-up of 20 mM Potassium Phosphate, 100 mM NaSO4 and 10% D2O was used to study peptide interaction. NMR assignments of Pin1 were taken from the BMRB database (accession number 27579) and confirmed using 3D-HNCA experiment. Synthetic peptides Cdh1-pS163 (comprised of Cdh1 residues 161-183 with phosphorylated Ser163 and isotope labeled Pro164, LR (pS)P(^13C, ^15N) […]) (SEQ ID NO: 27). were purchased from Pepmic. A systematic titration between Pin1 and phosphopeptide was performed by acquiring 2D-HSQC spectra. The absolute average chemical shift perturbation was calculated by using an equation, [(A8H2+ (A8N/5) 2)/2]½, available in software NMRFAM Sparky version 1.414.

Pin1 [8] = biological target: T1, Pin1; test: Proline isomerization study by 13C-HSQC NMR; format: biochemical
Source text: Commercially synthesized specific ^13C, ^15N-P164 labeled Cdh1 phosphopeptide was used to facilitate direct quantitative determination of the cis and trans proline populations. The strong ^13C-HSQC peaks originating from Pro164 can be easily distinguished from the weak peaks due to ~1% natural abundance ^13C present in the rest of the peptide. […] Based on the interpretation of the chemical shifts, the major peaks were assigned as trans isomer and the minor peaks were assigned as cis isomer (Schubert et al. J Biomol NMR 24, 149-154 (2002)). The proline resonance assignments were further confirmed using a 2D-^13C-HSQCTOCSY experiment while no attempts were made to stereospecifically assign proton resonances, thus the assignment of HB2 and HB3, HG2 and HG3, and HD2 and HD3 are interchangeable. 58 μM free peptide and its complex with a 4-fold molar excess of Pin1, dissolved in the above-mentioned NMR buffer were used to estimate the cis and trans isomer populations at 25° C.

Pin1 in MDA-MB-231 cells = test: Immunoblot of Pin1 inhibitor-induced Pin1 degradation with proteasome inhibitors; format: cell-based, human; conditions: MDA-MB-231, AApin 3 days; 10 μM MG132 or 1 μM bortezomib last 12 hrs
Method: For IB analysis, cells were lysed in RIPA buffer (Thermo) supplemented with protease inhibitors (Sigma) and phosphatase inhibitors (Sigma). Protein concentrations were measured using Protein Assay Dye Reagent (Bio-Rad) and a Beckman Coulter. Equal amounts of protein were resolved by SDS-PAGE and probed with indicated antibodies. For immunoprecipitation analysis, cells were lysed in IP lysis buffer (Thermo) and pre-cleared by Mouse IgG-Agarose (Sigma) for 1 hour at 4° C. and then incubated with anti-Flag M2-Agarose (Sigma) for 2 hours at 4° C. The agaroses were washed four times with IP lysis buffer and boiled in standard Laemmli-Buffer with 5% final concentration of β-mercaptoethanol before being resolved by SDS-PAGE and immunoblotted with indicated antibodies.
Exploration of the intrinsic upstream regulators that could affect Pin1 protein stability was then sought.

TNBC = conditions: single agents; cited from earlier work

## CC(C)(C)CN(C(=O)CCl)C1CCS(=O)(=O)C1 (centres unmarked) [sulfopin]
[1]
  median survival: 27 days
[2]
  median survival: 25 days
[3]
  median survival: 21 days
[4]
  median survival: 22.5 days
[5]
  tumor growth: limited single agent activity
MCF-7 cells
  S/G2 duration: strikingly prolonged S/G2 phases
[6]
  binding mode of Cdh1 to Pin1: shift from binding to the WW domain to the PPIase domain

## Cdh1-pS163: Cdh1 residues 161-183 with phosphorylated Ser163 and isotope labeled Pro164 (SEQ ID NO: 27) (LR[pS][Pro(13C,15N)]RKPTRKISKIPFKVLDAPE)
Pin1 [7]
  binding to the Pin1 WW domain: moderately strong affinity
Pin1 [8]; 1:4 complex with Pin1, 25° C.
  cis-P164 isomer population: 14.2%
Pin1 [8]; free peptide, 58 μM, 25° C.
  cis-P164 isomer population: 7%

## CCN1CCN(Cc2ccc(Nc3ncc(F)c(-c4cc(F)c5nc(C)n(C(C)C)c5c4)n3)nc2)CC1 [abemaciclib]
[1]
  median survival: 31.5 days
[2]
  median survival: 25 days
[4]
  median survival: 31 days

## CC(C)C[C@@H](C=O)NC(=O)[C@H](CC(C)C)NC(=O)[C@H](CC(C)C)NC(=O)OCc1ccccc1 [MG132] (Cbz-Leu-Leu-Leu-aldehyde)
Pin1 in MDA-MB-231 cells
  Pin1 inhibitor-induced Pin1 degradation: rescued

## CC(=O)c1c(C)c2cnc(Nc3ccc(N4CCNCC4)cn3)nc2n(C2CCCC2)c1=O [palbociclib]
[3]
  median survival: 21 days

## CC(C)C[C@H](NC(=O)[C@H](Cc1ccccc1)NC(=O)c1cnccn1)B(O)O [bortezomib]
Pin1 in MDA-MB-231 cells
  Pin1 inhibitor-induced Pin1 degradation: rescued

## CN(C)C(=O)c1cc2cnc(Nc3ccc(N4CCNCC4)cn3)nc2n1C1CCCC1 [ribociclib]
TNBC
  single agent activity in TNBC: neither palbociclib nor ribociclib has activity in TNBC

— patent publication US12728132B2, “Inhibitors of the peptidyl-prolyl cis/trans isomerase (PIN1), combinations and uses thereof” (DANA-FARBER CANCER INSTITUTE, INC., priority 2021, dated 2026)
